Values quoted from earlier work in patent publication US11547692B2, “Complete animal food having cannabinoids in trace concentrations to avoid toxicity” (High Plains Nutrition, LLC, priority 2017, dated 2023).

Test system: psychotropic effects
Conditions: humans; single administration; lowest dose tested; European Food Safety Authority (EFSA, 2011)

## CCCCCc1cc(O)c2c(c1)OC(C)(C)[C@@H]1CCC(C)=C[C@@H]21 [THC, Tetrahydrocannabinol]
  Lowest Observed Effect Level (LOEL), lowest effective dose for psychotropic effects: 0.04 mg THC/kg BW
